pIC50: −log10 of the molar value.

The test system of the test is P. falciparum 3D7 growth, pLDH absorbance. As to the kind of experiment: P. falciparum 3D7 growth inhibition, dose response, strain 3D7 (AID 2305).

For the compound `Cc1cccc2[nH]c(-c3ccc(-c4ccc(NC(=O)Nc5cccc(C#N)c5)cc4)s3)nc12`, the pIC50 (commonly the negative decadic logarithm of the IC50, by convention in mol/L) was 6.92.

`CCN1CCC(N(Cc2ccc(-c3ccc(C(F)(F)F)cc3)cc2)C(=O)Cn2c(CCc3cccc(F)c3F)cc(=O)c3ccc(OCc4ccccc4)cc32)CC1`: the pIC50 was 6.43.

`CCOC(=O)Cc1nc(N)c(C(=O)OCC)[nH]1` showed a pIC50 of 6.19.

With `COCc1nc(N)nc(N)c1-c1ccc(Cl)c(Cl)c1`, the pIC50 was 5.99.

`c1ccc2cc3c(Nc4ccc(N5CCCCCC5)cc4)ccnc3cc2c1` had a pIC50 of 6.03.

On to `CCN1CCC(N(Cc2ccc(-c3ccc(C(F)(F)F)cc3)o2)C(=O)Cn2c(CCc3cccc(F)c3F)nc(=O)c3ccccc32)CC1`, for which the pIC50 is 5.94.

`CC(C)CNC(=S)N1CCCN(c2nc3ccc(Cl)cc3s2)CC1` showed a pIC50 of 6.02.

In turn, `COC(=O)c1ccc(N2CCN(CCCCNC(=O)c3ccc(NC(=O)c4ccc(Cl)cc4)cc3)CC2)c(OC)c1` had a pIC50 of 5.89.

Consider `Clc1ccccc1CN1CCC(NCc2cccc(-n3ccnc3)c2)CC1`, for which the pIC50 was 6.10.

`CC(c1cccc(S(=O)(=O)NCc2ccc(Cl)cc2Cl)c1)N1CCC(N2CCCCC2)CC1` (stereo not given) gave a pIC50 of 6.12.

`Cc1nc2ccc(-c3nc4ccc(N)cc4[nH]3)cc2[nH]1` gave a pIC50 of 6.64.

In turn, `CN(C)CCOc1ccc(/C(=C(/CCCn2ccnc2)c2ccccc2)c2ccc(O)cc2)cc1` showed a pIC50 of 6.11.

In turn, `Cc1ccc(Nc2nc3cc(N(C)c4ccnc(Nc5cccc(CCS(C)(=O)=O)c5)n4)ccc3n2C)cc1` showed a pIC50 of 6.47.

Regarding `c1cc2nc(CCc3nc4ccc(C5=N[C@H]6CCCC[C@H]6N5)cc4[nH]3)[nH]c2cc1C1=N[C@@H]2CCCC[C@@H]2N1`, the pIC50 was 6.64.

The compound `CN(CC(=O)Nc1ccc(F)c(F)c1F)c1ncnc2sc(-c3ccccc3)cc12` had a pIC50 of 6.06.

As for `NC(N)=Nc1nc(-c2cccc(NCCCCCCCCON3C(N)=NC(N)=NC34CCCCC4)c2)cs1`, the pIC50 is 6.64.

With `COc1ccc(-c2ccc(NC(=O)c3cccc(C#N)c3)cc2)cc1CN1CCCC(C(N)=O)C1` (stereo not given), the pIC50 is 6.07.

Turning to `CC12CCC(C(=O)N(CC(O)Cn3c4ccc(Cl)cc4c4cc(Cl)ccc43)C1=O)C2(C)C` (stereo not given), the pIC50 is 6.08.

`COc1ccc2nccc([C@@H](O)CN3CCC(NC(=O)C(c4cc5ccccc5s4)N4CCN(c5ccccc5OC)CC4)CC3)c2c1` (stereo not given in full): the pIC50 is 6.80.

Consider `COc1ccc(CNC2CCN(C)CC2)cc1-c1ccc(OC)c(S(=O)(=O)NCc2ccccc2)c1`, for which the pIC50 is 6.02.

The compound `CN(C)CCCn1c(N)c(-c2nc3ccccc3[nH]2)c2nc(C#N)c(C#N)nc21` showed a pIC50 of 6.23.

As to `CC(=O)Nc1ccc(S(=O)(=O)N(Cc2cccc(Oc3ccccc3)c2)C2CCN(C/C=C(\C)CCC=C(C)C)CC2)cc1`, the pIC50 is 6.72.

Regarding `O=S(=O)(Nc1ccc(CCN2CCC(N3CCCCC3)CC2)cc1)c1cccc2cccnc12`, the pIC50 was 5.97.

`Cc1cccc2[nH]c(-c3cccc(-c4cccc(CNCc5cccc(N)c5)c4)c3)nc12` had a negative logarithm of the IC50 (pIC50) of 6.27.

For the compound `CCCCCCNc1c2ccccc2nc2ccccc12`, the pIC50 is 6.02.

As for `CON=Cc1ccn(-c2ccc(O)c3c2C[C@H]2C[C@H]4[C@H](N(C)C)C(=O)C(C(N)=O)=C(O)[C@@]4(O)C(=O)C2=C3O)c1`, the pIC50 was 6.11.

Consider `O=C(Nc1cccc(-c2ccc(-c3nc4ccc(F)cc4[nH]3)cc2)c1)c1cccnc1`, for which the pIC50 was 6.21.

Turning to `CC(C)(C)c1cc(C(=O)N2CCN(c3ccc(C(F)(F)F)cn3)CC2)n(Cc2ccc(F)cc2)n1`, the pIC50 was 6.01.

Consider `Cc1cc(NC(=O)c2cccs2)ccc1OC1CCN(Cc2ccc(C#N)cc2)C1` (stereo not given), for which the pIC50 was 6.07.

In turn, `COc1cc(NC(=O)/C=C/c2ccccc2Cl)cc(OCCN2CCC(O)(c3ccccc3)CC2)c1` gave a pIC50 of 6.77.

Take `COc1cccc(-c2cnc(N)c(-c3nc4cc(Cl)c(F)cc4[nH]3)c2)c1`: the pIC50 was 6.27.

With `CC(C)C[C@H](NC(=O)c1cc2ccccc2s1)C(=O)N[C@H]1CCN(Cc2ccc(I)c(OC3CCN(C)C3)c2)C1` (stereo not given in full), the pIC50 was 6.04.

Consider `FC(F)(F)c1ccc2nccc(NN=Cc3ccccc3Cl)c2c1`, for which the pIC50 was 6.10.

With `CS(=O)(=O)NCCCNCc1ccc(-c2cccc(-c3nc4ccc(C(F)(F)F)cc4[nH]3)c2)cc1`, the pIC50 is 6.07.

`Fc1cccc(COc2ccc(Nc3ncnc4sc(C#Cc5ncc[nH]5)cc34)cc2Cl)c1` gave a pIC50 of 6.89.

In the case of `COc1ccc2ncc(F)c(CCN3CC[C@@H](CNCc4ccc5c(c4C)OCCO5)C3)c2n1`, the pIC50 was 5.99.

The compound `CCN(CC)CCN1C(=O)c2oc3ccc(F)cc3c(=O)c2C1c1cccc(Cl)c1` (stereo not given) showed a pIC50 of 6.28.

`CC(C)(C)C(=O)Nc1ccc(N2CCN(C(c3ccccc3)c3ccccc3)CC2)c(Cl)c1`: the pIC50 is 6.18.

The compound `CC1CN(Cc2cccc(F)c2)CCN1c1ccc(NC(=O)c2ccc(F)cc2)cc1` (stereo not given) gave a pIC50 of 6.24.

`CCOCc1cnc(C)nc1CNC(=O)c1c(C)[nH]c2ccc(C)cc12` had a pIC50 of 6.00.

For the compound `CCOc1ccc(Nc2nc(N)c3ccccc3n2)cc1`, the pIC50 was 5.94.

As to `Cc1cc(NN=Cc2cccc([N+](=O)[O-])c2)c2cc(F)ccc2n1`, the pIC50 is 6.23.

`O=C(Nc1ccc(Cl)cc1)c1cccc(CN2CCCN(Cc3cccc(O)c3)CC2)c1` showed a pIC50 of 6.02.

`O=C(NC1CCN(c2ccnc3cc(Cl)ccc23)C1)c1ccc(F)cc1F` (stereo not given) gave a pIC50 of 6.43.

`Oc1ccc2nc(N3CCNCC3)nc(NCCCc3ccccc3)c2c1`: the pIC50 is 5.86.

For `COc1ccc2nccc([C@@H](O)CN3CCC(NCCOc4ccc(F)cc4[N+](=O)[O-])CC3)c2c1`, the pIC50 is 6.92.

For the compound `CC[C@@]1(O)C(=O)OCc2c1cc1n(c2=O)Cc2c-1nc1cc3c(cc1c2CN1CCN(C)CC1)OCCO3`, the pIC50 is 6.35.

For the compound `COc1ccc(C[C@@H](N)C(=O)N[C@H]2[C@@H](O)[C@H](n3cnc4c(N(C)C)ncnc43)O[C@@H]2CO)cc1`, the pIC50 was 6.77.

`CCCCCCOc1ccc(C(=O)NCCCC2CCCN(CCCCCNC(=O)C=Cc3ccc(Cl)c(Cl)c3)C2)cc1` (stereo not given): the pIC50 was 6.15.

`CN(C)Cc1ccc2cc(NC(=O)c3ccc(-c4ccc(Cl)cc4)cc3)ccc2n1` had a pIC50 of 6.07.

As to `O=C(Cc1ccc([N+](=O)[O-])cc1)N1CCc2cc3nccc(N4CCN5CCC[C@H]5C4)c3cc21`, the pIC50 was 6.08.

`CN1CCC(NCCS(=O)(=O)c2cccc(Nc3ccc(-c4cccc(F)c4)cn3)c2)CC1` had a pIC50 of 5.87.

Compound `CCCOc1ccc(C=C(CC(=O)O)c2nc3ccccc3s2)cc1OCC` showed a pIC50 of 6.26.

The compound `NC(N)=NC(=O)Nc1ccc(Cl)c([N+](=O)[O-])c1` gave a pIC50 of 6.12.

With `Cc1cc(C)c(CC(C)NCC(O)c2cccc(C(F)(F)F)c2)c(C)c1` (stereo not given), the pIC50 was 6.24.

`COc1ccc(NC(=O)c2cc(NC(=O)C3(N)CC3)c(=O)n(Cc3ccc(C(N)=O)cc3)c2)cc1` showed a pIC50 of 6.10.

In turn, `CCC(CC)(Cc1ccccc1)NC(=O)[C@H](CC(C)C)Nc1ccc(C#N)c2ccccc12` showed a pIC50 of 6.04.

`CN(C)C(=O)n1cnc(S(=O)(=O)N(C)c2ccc(Cl)cc2)n1` showed a pIC50 of 6.11.

For the compound `COc1ccc(N2CCN(CCCCNC(=O)c3ccc(/C=C/c4ccc(Cl)c(Cl)c4)cc3)CC2)c(OC)c1`, the pIC50 is 6.15.

`Cc1cccc(NC(=O)NC2CCN(CCCCCNC(=O)/C=C/c3ccc(Cl)c(Cl)c3)CC2)c1` gave a pIC50 of 6.12.

These data come from PubChem BioAssay AID2305 (GlaxoSmithKline (GSK), 2010).
